For assay [1], the system named is Stat1 (pY701). Put plainly: Immunoblot assay of IFN-γ-mediated Stat1 phosphorylation in HepG2 cells. The conditions noted are these: 300 μM, 1 hour at 37° C. Format: cell-based, human. How it is done: HepG2 cells were pretreated with DMSO alone or DMSO containing each of the compounds at a concentration of 300 μM for 60 min. Cells were then stimulated with IFN-γ (30 ng/ml) for 30 min. Protein extracts of cells were separated by SDS-PAGE and immunoblotted serially with antibodies to pStat1, total Stat1 and β-actin. Blots were stripped between each immunoblotting. The results shown are representative of 2 or more experiments.
Immunoblot assay. The human hepatocellular carcinoma cell line (HepG2) was grown in 6-well plates under standard conditions. Cells were pretreated with compounds (0, 1, 3, 10, 30, 100 and 300 uM) for 1 hour then stimulated under optimal conditions with either interferon gamma (IFN-γ; 30 ng/ml for 30 min) to activate Stat1 or interleukin-6 (IL-6; 30 ng/ml for 30 min) to activate Stat3 (30-31). Cultures were then harvested and proteins extracted using high-salt buffer, as described (Shao et al., 2006). Briefly, extracts were mixed with 2× sodium dodecyl sulfate (SDS) sample buffer (125 mmol/L Tris-HCL pH 6.8; 4% SDS; 20% glycerol; 10% 2-mercaptoethanol) at a 1:1 ratio and heated for 5 minutes at 100° C. Proteins (20 μg) were separated by 7.5% SDS-PAGE and transferred to polyvinylidene fluoride (PVDF) membrane (Millipore, Waltham, Mass.) and immunoblotted. Prestained molecular weight markers (Biorad, Hercules, Calif.) were included in each gel. Membranes were probed serially with antibody against Stat1 pY^701 or Stat3 pY^705 followed by antibody against Stat1 or Stat3 (Transduction labs, Lexington, Ky.) then antibody against β-actin (Abcam, Cambridge, Mass.). Membranes were stripped between antibody probing using Restore™ Western Blot Stripping Buffer (Thermo Fisher Scientific Inc., Waltham, Mass.) per the manufacturer's instructions. Horseradish peroxidase-conjugated goat-anti-mouse IgG was used as the secondary antibody (Invitrogen Carlsbad, Calif.) and the membranes were developed with enhanced chemiluminescence (ECL) detection system (Amersham Life Sciences Inc.; Arlington Heights, Ill.).
While Stat3 contributes to oncogenesis, in part, through inhibition of apoptosis, Stat1 is anti-oncogenic; it mediates the apoptotic effects of interferons and contributes to tumor surveillance (Kaplan et al., 1998; Ramana et al., 2000). Consequently, compounds that target Stat3 while sparing Stat1, leaving its anti-oncogenic functions unopposed, may result in a synergistic anti-tumor effect. […] Thus, five of the six exemplary compounds identified were selective and inhibited ligand-stimulated phosphorylation of Stat3 but not Stat1.
EXP IIC. Ligand-mediated pStat3 and pStat1 inhibition assays. […] Briefly, human hepatocellular carcinoma cells (HepG2) are grown in 6-well plates and pretreated with compounds (0, 0.1, 0.3, 1, 3, 10, 30, 100 μM) for 1 hour then stimulated under optimal conditions with either interleukin-6 (IL-6; 30 ng/ml for 30 min) to activate Stat3 or interferon gamma (IFN-γ; 30 ng/ml for 30 min) to activate Stat1. Cells are harvested and proteins extracted using high-salt buffer, mixed with 2× sodium dodecyl sulfate (SDS) sample buffer (125 mmol/L Tris-HCL pH 6.8; 4% SDS; 20% glycerol; 10%2-mercaptoethanol) at a 1:1 ratio then heated for 5 minutes at 100° C. Proteins (20 μg) are separated by 7.5% SDS-PAGE and transferred to polyvinylidene fluoride (PVDF) membrane (Millipore, Waltham, Mass.) and immunoblotted. Membranes are probed serially with antibody against Stat1 pY701 or Stat3 pY705 followed by antibody against Stat1 or Stat3 (Transduction labs, Lexington, Ky.) then antibody against β-actin (Abcam, Cambridge, Mass.). Membranes are stripped between antibody probings using Restore™ Western Blot Stripping Buffer (Thermo Fisher Scientific Inc., Waltham, Mass.) per the manufacturer's instructions. […]
(In general: In western blotting, separated proteins are transferred to a membrane and probed.)

Assay [2] concerns the target T1, Stat3-DNA (hSIE) complexes (Homo sapiens, UniProt P40763).
T1 construct: high salt extracts were prepared from HepG2 cells incubated without or with IL-6 (30 ng/ml) for 30 minutes; endogenous in cells; host or cells: HepG2 (IL-6-stimulated), whole-cell high-salt extract
Nature of the assay: Electrophoretic mobility shift assay (EMSA), Stat3:hSIE DNA binding. Format: biochemical. The conditions noted are these: 300 μM, extracts of IL-6-stimulated HepG2 cells. How it is done: Electrophoretic mobility shift assays were performed using whole-cell extracts prepared from HepG2 cells without and with stimulation with IL-6 (30 ng/ml) for 30 min. Protein (20 μg) was incubated with radiolabeled duplex oligonucleotide (hSIE) and DMSO without or with the indicated compounds (300 uM) for 60 minutes at 37° C. then separated by PAGE. The gel was dried and autoradiographed; the portion of the gel corresponding to the Stat3-bound hSIE band is shown. Data shown are representative of 2 studies.
Electrophoretic Mobility Shift Assay (EMSA): EMSA was performed using the hSIE radiolabeled duplex oligonucleotide as a probe as described (Tweardy et al., 1995). Briefly, high salt extracts were prepared from HepG2 cells incubated without or with IL-6 (30 ng/ml) for 30 minutes. Protein concentration was determined by Bradford Assay and 20 ug of extract was incubated with compound (300 uM) for 60 minutes at 37 °C. […] Gels were dried and autoradiographed.
Once in the nucleus, Stat3 dimers bind to specific DNA elements to activate and, in some instances, repress gene transcription. […] Compounds that bind to the phosphopeptide-binding site of Stat3 might be expected to do the same. […]
A general note: Mobility shift assays separate free from complexed probe on a gel.

In assay [3] the test system is breast cancer cell lines. Put plainly: Apoptosis of breast cancer cell lines with constitutive Stat3 activation. Format: cell-based.

Each structure is given as a SMILES string.

T1 sequence (P40763 2-770 limits assumed, one chain of several): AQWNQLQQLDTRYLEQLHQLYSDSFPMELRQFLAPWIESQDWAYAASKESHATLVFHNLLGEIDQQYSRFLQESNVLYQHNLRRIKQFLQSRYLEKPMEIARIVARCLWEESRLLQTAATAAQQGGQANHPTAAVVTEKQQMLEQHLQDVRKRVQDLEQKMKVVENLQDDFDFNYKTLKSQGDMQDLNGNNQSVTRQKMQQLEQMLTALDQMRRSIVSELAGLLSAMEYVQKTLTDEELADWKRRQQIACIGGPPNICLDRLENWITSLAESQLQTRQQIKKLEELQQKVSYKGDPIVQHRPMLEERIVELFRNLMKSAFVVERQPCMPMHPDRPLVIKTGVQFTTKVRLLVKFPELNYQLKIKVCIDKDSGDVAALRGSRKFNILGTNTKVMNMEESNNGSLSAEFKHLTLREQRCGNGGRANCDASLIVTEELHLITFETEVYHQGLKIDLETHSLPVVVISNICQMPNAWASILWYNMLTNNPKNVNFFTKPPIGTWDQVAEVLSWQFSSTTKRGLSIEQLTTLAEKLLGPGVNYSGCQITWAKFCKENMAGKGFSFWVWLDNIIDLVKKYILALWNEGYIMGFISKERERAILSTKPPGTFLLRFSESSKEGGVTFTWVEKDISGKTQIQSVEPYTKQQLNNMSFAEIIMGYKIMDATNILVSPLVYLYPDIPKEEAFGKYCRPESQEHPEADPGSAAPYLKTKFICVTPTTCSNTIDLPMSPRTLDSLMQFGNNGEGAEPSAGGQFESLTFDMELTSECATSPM

As to `O=C(O)c1ccc(C=CC(=O)c2ccc3c(c2)OCCO3)cc1` [Cpd3, 4-[3-(2,3-dihydro-1,4-benzodioxin-6-yl)-3-oxo-1-propen-1-yl]benzoic acid], the “Stat1 phosphorylation after IFN-γ stimulation” value in assay [1] is given as “did not”. Also, in assay [2], the “Stat3:hSIE band intensity (amount of hSIE shifted)” value is given as “reduced the amount of hSIE shifted by half or greater”. Further, in assay [3], the “induction of apoptosis of breast cancer cell lines” value was “induced apoptosis preferentially”.

Take `CCOc1cc(C=C2C(=O)c3ccccc3C2=O)cc(Cl)c1OCc1cccc(C(=O)O)c1` [Cpd3-2, 3-({2-chloro-4-[(1,3-dioxo-1,3-dihydro-2H-inden-2-ylidene)methyl]-6-ethoxyphenoxy}methyl)benzoic acid]: the “Stat1 phosphorylation after IFN-γ stimulation” value in assay [1] is “did not”.
